Measured values reported in paper PMC6081437, “The potency of the broad spectrum bacteriocin, bactofencin A, against staphylococci is highly dependent on primary structure, N-terminal charge and disulphide formation” (Scientific Reports, 2018).
Bridge positions count the residues as written; N and C are the ends. Square brackets hold non-standard residues; d marks the D form. Peptide text beside a SMILES is read from it.

What follows are compounds tested on S. aureus DPC5246. Settings: DPC5246, pH 6.8.
Assay type: cell-based, Staphylococcus aureus
Description: Peptides were resuspended at 1000 µM in 50 mM sodium phosphate buffer pH 6.8 and checked for purity by MALDI-TOF-MS. Peptides were serially diluted 1 in 4 to give a dilution series of 250, 62.50, 15.63, 3.91, 0.98 and 0.24 µM and assayed by the agar well diffusion assay described by Ryan et al.[19]. Briefly, 50 µl aliquots of each peptide concentration were plated on a S. aureus DPC5246 indicator plate and the plate incubated at 37 °C. Peptide activity (Minimum Inhibitory Concentration (MIC)) was taken as the lowest concentration of peptide to give a zone of inhibition. All assays were performed in triplicate. The dilution series values were rounded to the nearest whole number to give 1000, 250, 63, 16, 4, 1 and 0.25 µM and data is colour coded for ease of interpretation.
`CSCC[C@@H]1NC(=O)CNC(=O)[C@H]([C@@H](C)O)NC(=O)[C@@H]2CCCN2C(=O)[C@H](CCSC)NC(=O)CNC(=O)[C@H](CC(N)=O)NC(=O)[C@H](CC(N)=O)NC(=O)[C@H](Cc2ccc(O)cc2)NC(=O)[C@H](C(C)C)NC(=O)[C@H](CCCNC(=N)N)NC(=O)[C@@H](NC(=O)[C@H](CCCNC(=N)N)NC(=O)[C@H](Cc2c[nH]cn2)NC(=O)[C@H](CCCCN)NC(=O)[C@H](CCCCN)NC(=O)[C@H](CCCNC(=N)N)NC(=O)[C@@H](N)CCCCN)CSSC[C@@H](C(=O)O)NC(=O)[C@H](C)NC(=O)[C@H](CCCNC(=N)N)NC(=O)[C@H](Cc2ccc(O)cc2)NC1=O` [W21A] (H-KRKKHRCRVYNNGMPTGMYRAC-OH; disulfide 7-22) was tested, and the “Activity (Minimum Inhibitory Concentration, MIC)” value was 1 µM. With `CSCC[C@@H]1NC(=O)CNC(=O)[C@H]([C@@H](C)O)NC(=O)[C@H]2CCCN2C(=O)[C@H](CCSC)NC(=O)CNC(=O)[C@H](CC(N)=O)NC(=O)[C@H](CC(N)=O)NC(=O)[C@H](Cc2ccc(O)cc2)NC(=O)[C@H](C(C)C)NC(=O)[C@H](CCCNC(=N)N)NC(=O)[C@@H](NC(=O)[C@H](CCCNC(=N)N)NC(=O)[C@H](Cc2c[nH]cn2)NC(=O)[C@H](CCCCN)NC(=O)[C@H](CCCCN)NC(=O)[C@H](CCCNC(=N)N)NC(=O)[C@@H](N)CCCCN)CSSC[C@@H](C(=O)O)NC(=O)[C@H](Cc2c[nH]c3ccccc23)NC(=O)[C@H](CCCNC(=N)N)NC(=O)[C@H](Cc2ccc(O)cc2)NC1=O` [P15Pd] (H-KRKKHRCRVYNNGM[dP]TGMYRWC-OH; disulfide 7-22; N-terminus assumed) the “Activity (Minimum Inhibitory Concentration, MIC)” value was > 1000 µM. In the case of `CSCC[C@@H]1NC(=O)CNC(=O)[C@H]([C@@H](C)O)NC(=O)[C@@H]2CCCN2C(=O)[C@H](C)NC(=O)CNC(=O)[C@H](CC(N)=O)NC(=O)[C@H](CC(N)=O)NC(=O)[C@H](Cc2ccc(O)cc2)NC(=O)[C@H](C(C)C)NC(=O)[C@H](CCCNC(=N)N)NC(=O)[C@@H](NC(=O)[C@H](CCCNC(=N)N)NC(=O)[C@H](Cc2c[nH]cn2)NC(=O)[C@H](CCCCN)NC(=O)[C@H](CCCCN)NC(=O)[C@H](CCCNC(=N)N)NC(=O)[C@@H](N)CCCCN)CSSC[C@@H](C(=O)O)NC(=O)[C@H](Cc2c[nH]c3ccccc23)NC(=O)[C@H](CCCNC(=N)N)NC(=O)[C@H](Cc2ccc(O)cc2)NC1=O` [M14A] (H-KRKKHRCRVYNNGAPTGMYRWC-OH; disulfide 7-22), the “Activity (Minimum Inhibitory Concentration, MIC)” value is reported as 16 µM. With `CSCC[C@@H]1NC(=O)CNC(=O)[C@H]([C@@H](C)O)NC(=O)[C@@H]2CCCN2C(=O)[C@@H](CCSC)NC(=O)CNC(=O)[C@H](CC(N)=O)NC(=O)[C@H](CC(N)=O)NC(=O)[C@H](Cc2ccc(O)cc2)NC(=O)[C@H](C(C)C)NC(=O)[C@H](CCCNC(=N)N)NC(=O)[C@@H](NC(=O)[C@H](CCCNC(=N)N)NC(=O)[C@H](Cc2c[nH]cn2)NC(=O)[C@H](CCCCN)NC(=O)[C@H](CCCCN)NC(=O)[C@H](CCCNC(=N)N)NC(=O)[C@@H](N)CCCCN)CSSC[C@@H](C(=O)O)NC(=O)[C@H](Cc2c[nH]c3ccccc23)NC(=O)[C@H](CCCNC(=N)N)NC(=O)[C@H](Cc2ccc(O)cc2)NC1=O` [M14Md] (H-KRKKHRCRVYNNG[dM]PTGMYRWC-OH; disulfide 7-22; N-terminus assumed) the “Activity (Minimum Inhibitory Concentration, MIC)” value was 63 µM. With `CSCC[C@@H]1NC(=O)CNC(=O)[C@H]([C@@H](C)O)NC(=O)[C@@H]2CCCN2C(=O)[C@H](CCSC)NC(=O)CNC(=O)[C@H](CC(N)=O)NC(=O)[C@H](CC(N)=O)NC(=O)[C@H](Cc2ccc(O)cc2)NC(=O)[C@H](C(C)C)NC(=O)[C@H](CCCNC(=N)N)NC(=O)[C@@H](NC(=O)[C@H](CCCNC(=N)N)NC(=O)[C@@H](N)Cc2c[nH]cn2)CSSC[C@@H](C(=O)O)NC(=O)[C@H](Cc2c[nH]c3ccccc23)NC(=O)[C@H](CCCNC(=N)N)NC(=O)[C@H](Cc2ccc(O)cc2)NC1=O` [H5-C22] (H-HRCRVYNNGMPTGMYRWC-OH; disulfide 3-18; N-terminus assumed) the “Activity (Minimum Inhibitory Concentration, MIC)” value was 16 µM. For `CSCC[C@@H]1NC(=O)CNC(=O)[C@H]([C@@H](C)O)NC(=O)[C@@H]2CCCN2C(=O)[C@H](CCSC)NC(=O)CNC(=O)[C@@H](CC(N)=O)NC(=O)[C@H](CC(N)=O)NC(=O)[C@H](Cc2ccc(O)cc2)NC(=O)[C@H](C(C)C)NC(=O)[C@H](CCCNC(=N)N)NC(=O)[C@@H](NC(=O)[C@H](CCCNC(=N)N)NC(=O)[C@H](Cc2c[nH]cn2)NC(=O)[C@H](CCCCN)NC(=O)[C@H](CCCCN)NC(=O)[C@H](CCCNC(=N)N)NC(=O)[C@@H](N)CCCCN)CSSC[C@@H](C(=O)O)NC(=O)[C@H](Cc2c[nH]c3ccccc23)NC(=O)[C@H](CCCNC(=N)N)NC(=O)[C@H](Cc2ccc(O)cc2)NC1=O` [N12Nd] (H-KRKKHRCRVYN[dN]GMPTGMYRWC-OH; disulfide 7-22; N-terminus assumed), the “Activity (Minimum Inhibitory Concentration, MIC)” value was 4 µM. `CSCC[C@@H]1NC(=O)CNC(=O)[C@H]([C@@H](C)O)NC(=O)[C@@H]2CCCN2C(=O)[C@H](CCSC)NC(=O)CNC(=O)[C@H](CC(N)=O)NC(=O)[C@H](CC(N)=O)NC(=O)[C@H](Cc2ccc(O)cc2)NC(=O)[C@H](C(C)C)NC(=O)[C@H](CCCNC(=N)N)NC(=O)[C@@H](NC(=O)[C@H](CCCNC(=N)N)NC(=O)[C@H](Cc2c[nH]cn2)NC(=O)[C@H](CCCCN)NC(=O)[C@H](CCCCN)NC(=O)[C@H](CCCNC(=N)N)NC(=O)[C@@H](N)CCCCN)CSSC[C@@H](C(=O)O)NC(=O)[C@@H](Cc2c[nH]c3ccccc23)NC(=O)[C@H](CCCNC(=N)N)NC(=O)[C@H](Cc2ccc(O)cc2)NC1=O` [W21Wd] (H-KRKKHRCRVYNNGMPTGMYR[dW]C-OH; disulfide 7-22; N-terminus assumed) was tested, and the “Activity (Minimum Inhibitory Concentration, MIC)” value was 4 µM. With `CSCC[C@@H]1NC(=O)CNC(=O)[C@H]([C@@H](C)O)NC(=O)[C@@H]2CCCN2C(=O)[C@H](CCSC)NC(=O)CNC(=O)[C@H](CC(N)=O)NC(=O)[C@H](CC(N)=O)NC(=O)[C@@H](Cc2ccc(O)cc2)NC(=O)[C@H](C(C)C)NC(=O)[C@H](CCCNC(=N)N)NC(=O)[C@@H](NC(=O)[C@H](CCCNC(=N)N)NC(=O)[C@H](Cc2c[nH]cn2)NC(=O)[C@H](CCCCN)NC(=O)[C@H](CCCCN)NC(=O)[C@H](CCCNC(=N)N)NC(=O)[C@@H](N)CCCCN)CSSC[C@@H](C(=O)O)NC(=O)[C@H](Cc2c[nH]c3ccccc23)NC(=O)[C@H](CCCNC(=N)N)NC(=O)[C@H](Cc2ccc(O)cc2)NC1=O` [Y10Yd] (H-KRKKHRCRV[dY]NNGMPTGMYRWC-OH; disulfide 7-22; N-terminus assumed) the “Activity (Minimum Inhibitory Concentration, MIC)” value was > 1000 µM. With `CSCC[C@@H]1NC(=O)CNC(=O)[C@H]([C@@H](C)O)NC(=O)[C@@H]2CCCN2C(=O)[C@H](CCSC)NC(=O)CNC(=O)[C@H](CC(N)=O)NC(=O)[C@H](CC(N)=O)NC(=O)[C@H](Cc2ccc(O)cc2)NC(=O)[C@H](C(C)C)NC(=O)[C@H](CCCNC(=N)N)NC(=O)[C@@H](NC(=O)[C@H](CCCNC(=N)N)NC(=O)[C@H](Cc2c[nH]cn2)NC(=O)[C@H](CCCCN)NC(=O)[C@H](CCCCN)NC(=O)[C@H](CCCNC(=N)N)NC(=O)[C@@H](N)CCCCN)CSSC[C@@H](C(=O)O)NC(=O)[C@H](Cc2c[nH]c3ccccc23)NC(=O)[C@H](CCCNC(=N)N)NC(=O)[C@H](C)NC1=O` [Y19A] (H-KRKKHRCRVYNNGMPTGMARWC-OH; disulfide 7-22) the “Activity (Minimum Inhibitory Concentration, MIC)” value was 1 µM.

Same assay, conditions: S. aureus DPC5246, agar well diffusion MIC
In the case of `CSCC[C@@H]1NC(=O)CNC(=O)[C@H]([C@@H](C)O)NC(=O)[C@@H]2CCCN2C(=O)[C@@H](CCSC)NC(=O)CNC(=O)[C@H](CC(N)=O)NC(=O)[C@H](CC(N)=O)NC(=O)[C@H](Cc2ccc(O)cc2)NC(=O)[C@H](C(C)C)NC(=O)[C@H](CCCNC(=N)N)NC(=O)[C@@H](NC(=O)[C@H](CCCNC(=N)N)NC(=O)[C@H](Cc2c[nH]cn2)NC(=O)[C@H](CCCCN)NC(=O)[C@H](CCCCN)NC(=O)[C@H](CCCNC(=N)N)NC(=O)[C@@H](N)CCCCN)CSSC[C@@H](C(=O)O)NC(=O)[C@H](Cc2c[nH]c3ccccc23)NC(=O)[C@H](CCCNC(=N)N)NC(=O)[C@H](Cc2ccc(O)cc2)NC1=O` [M14Md] (H-KRKKHRCRVYNNG[dM]PTGMYRWC-OH; disulfide 7-22; N-terminus assumed), the “fold reduction in activity compared with bactofencin A (wild type)” value is reported as 63 fold.
